The source of these data is PMC10949600, “Iso-mukaadial acetate and ursolic acid acetate bind to Plasmodium Falciparum heat shock protein 70: towards targeting parasite protein folding pathway” (BMC Chemistry, 2024).

The assay concerns the target T1, PfHsp70-1 (Plasmodium falciparum, UniProt P11144).
T1 construct: recombinant PfHsp70-1 (pQE30/PfHsp70-1)
As to the kind of experiment: SPR, PfHsp70-1 immobilized on CMD 3-D gold chip by amine coupling. In kind it is binding. The source says: SPR, PfHsp70-1 immobilized on CMD 3-D gold chip by amine coupling on PfHsp70-1 | PfHsp70 binds to either of the two compounds within the micromolar range of affinity

Read-outs that look alike come from different tables or passages of the source.

For orientation: Kd means the concentration at which binding is half-saturated.

T1 sequence (P11144 whole entry): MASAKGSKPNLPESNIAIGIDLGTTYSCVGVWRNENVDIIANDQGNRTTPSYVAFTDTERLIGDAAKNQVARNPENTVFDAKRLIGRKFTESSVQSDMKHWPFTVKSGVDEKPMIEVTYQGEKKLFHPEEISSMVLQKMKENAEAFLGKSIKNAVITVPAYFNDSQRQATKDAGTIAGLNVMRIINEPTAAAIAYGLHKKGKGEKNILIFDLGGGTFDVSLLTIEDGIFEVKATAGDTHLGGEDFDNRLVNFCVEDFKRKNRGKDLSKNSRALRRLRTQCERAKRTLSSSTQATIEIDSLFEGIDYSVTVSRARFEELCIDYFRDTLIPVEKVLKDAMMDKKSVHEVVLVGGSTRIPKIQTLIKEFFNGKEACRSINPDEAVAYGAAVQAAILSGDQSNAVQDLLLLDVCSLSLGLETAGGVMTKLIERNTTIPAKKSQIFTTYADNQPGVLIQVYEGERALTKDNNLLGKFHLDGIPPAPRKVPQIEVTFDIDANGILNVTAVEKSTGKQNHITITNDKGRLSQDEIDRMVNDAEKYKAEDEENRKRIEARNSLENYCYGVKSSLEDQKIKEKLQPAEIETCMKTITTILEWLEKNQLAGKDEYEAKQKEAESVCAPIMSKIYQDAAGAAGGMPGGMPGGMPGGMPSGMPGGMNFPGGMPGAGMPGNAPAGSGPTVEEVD

For the compound `CC(=O)O[C@H]1CC[C@]2(C)[C@H]3CC=C4[C@@H]5[C@@H](C)[C@H](C)CC[C@]5(C(=O)O)CC[C@@]4(C)[C@]3(C)CC[C@H]2C1(C)C` [UAA, ursolic acid acetate], binding was put at a Kd of 4.03 µM.

Turning to iso-mukaadial acetate [IMA], the equilibrium dissociation constant (Kd) (read-out: KD) was 9.89 µM.
